Measurements taken from US4939274A, “Hydroxybutenolide derivatives, production and use thereof” (Takeda Chemical Industries, Ltd., priority 1986, dated 1990).

Columns and labels:
[1] = system: lipid peroxide formation in rat brain tissue homogenate; assay: Activity to inhibit lipid peroxide formation in rat brain tissue homogenate (TBA method); format: biochemical; conditions: 10^-5 M; 5% rat brain homogenate, 37° C., 1 hour; n=3, mean; vs. DMSO reference
Description: Male SD rats (12-week-old) were subjected to exsanguination under anesthesia with pentobarbital, then the brain was excised. The brain tissue was homogenized in a phosphate buffer (pH 7.4) to prepare a 5% homogenate. After incubation of the homogenate at 37° C. for 1 hour, the amount of lipid peroxides formed therein was determined by the thiobarbituric acid (TBA) method in accordance with the report of Ohkawa et al. on Analytical Biochemistry, 95, 351, (1979). The test drug was added to the 5% homogenate before incubation so as to make the final concentration be 10^-5 M The activity to inhibit the formation of lipid peroxide was compared with that of the reference group to which was added the solvent (DMSO), and shown by % inhibition.

mice = assay: Acute toxicity in mice; format: in vivo; conditions: oral, 300 and 1000 mg/kg
Description: Male Crj-ICR mice (4-week-old, 21 to 26 g) were used. The animals, divided into groups, each consisting of six mice, were administered orally with compounds (4-c, 4-h) at the dosages of 300 and 1000 mg/kg, respectively. Then, each group was housed in a cage and observed for 24 hours.
The test drugs were suspended in gum arabic and administered at a volume of 0.1 ml/10 g.

[2] = system: ventricular arrhythmia during coronary artery occlusion-reperfusion in rat hearts; assay: Activity to inhibit occurrence of ventricular arrhythmia during coronary artery occlusion-reperfusion in rat hearts; format: in vivo; conditions: 50 mg/kg, oral; for Ventricular fibrillation, Incidence (10 min.) / Ventricular tachycardia, Incidence (10 min.): 10 min. observation; for Ventricular fibrillation, Incidence (10 min.): control 4.1 ± 0.7; for Ventricular tachycardia, Incidence (10 min.): control 11.5 ± 5.0; for Ventricular tachycardia, Duration / Ventricular fibrillation, Duration: average ± SEM; for Ventricular tachycardia, Duration: control 26.5 ± 6.8; for Ventricular fibrillation, Duration: control 74.2 ± 30.8; for Exrasystole: control 11.0 ± 4.0; for Mortality: killed/tested animals, control 2/18
Text: Male SD rats (9- to 13-week old, 250 to 370 g) were used. The animals were subjected to thoractonomy under artificial respiration while anesthesia was maintained by administering pentobarbital. […] By recording standard limb lead II electrocardiograms, occurrence of ventricular arrhythmia was examined.
Incidences of ventricular fibrillation and ventricular tachycardia are shown by the percentage of the number of animals presenting the symptoms relative to the number of animals subjected to the test, and the duration of the symptoms was shown in average ±SEM by seconds. Extrasystole is shown by the number of systole/min., and the mortality is shown by the percentage of the number of killed animals relative to the number of test animals.

## CCCCCOc1ccc(C2=C(O)COC2=O)cc1 [Compound 4-a]
[1]
  Inhibition rate (lipid peroxide formation): 57.1%

## CCCCCCCOc1ccc(C2=C(O)COC2=O)cc1 [Compound 4-b]
[1]
  Inhibition rate (lipid peroxide formation): 100.0%

## CCCCCCCCCCOc1ccc(C2=C(O)C(C)OC2=O)cc1 (stereo not shown) [Compound 4-d]
[1]
  Inhibition rate (lipid peroxide formation): 100.0%

## CCCCCCCCCCOc1ccc(C2=C(O)C(c3ccccc3)OC2=O)cc1 (stereo not shown) [Compound 4-e]
[1]
  Inhibition rate (lipid peroxide formation): 100.0%

## CCCCCCCCCCCOc1ccc(C2=C(O)COC2=O)cc1 [Compound 4-f]
[1]
  Inhibition rate (lipid peroxide formation): 89.7%

## CCCCCCCCCCCOc1ccc(C2=C(O)C(c3ccccc3)OC2=O)cc1 (stereo not shown) [Compound 4-g, 2-(4-undecyloxyphenyl)-3-hydroxy-4-phenyl-2-buten-4-olide]
[1]
  Inhibition rate (lipid peroxide formation): 100.0%

## CCCCCCCCCCCCOc1ccc(C2=C(O)COC2=O)cc1 [Compound 4-h, 2-(4-dodecyloxyphenyl)-3-hydroxy-2-buten-4-olide]
mice
  recovery from sedation and ptosis: ≤ 3 h
mice; six mice per group
  state of sedation and ptosis, animals affected: half number of the test animals
[1]
  Inhibition rate (lipid peroxide formation): 100.0%

## CCCCCCCCCCCCOc1ccc(C2=C(O)C(C)OC2=O)cc1 (stereo not shown) [Compound 4-i]
[1]
  Inhibition rate (lipid peroxide formation): 100.0%

## CCCCCCCCCCCCCCOc1ccc(C2=C(O)COC2=O)cc1 [Compound 4-j]
[1]
  Inhibition rate (lipid peroxide formation): 100.0%

## CCCCCCCCCCCCCCCCCCOc1ccc(C2=C(O)COC2=O)cc1 [Compound 4-k]
[1]
  Inhibition rate (lipid peroxide formation): 80.1%

## O=C1O[C@H]([C@@H](O)CO)C(O)=C1O [Vitamin C, ascorbic acid]
[1]
  Inhibition rate (lipid peroxide formation): -71.6%
[2]
  effect on ventricular arrhythmia: no significant effect
  Ventricular fibrillation, Incidence (10 min.): 5.4 ± 0.8
  Ventricular tachycardia, Incidence (10 min.): 9.5 ± 1.8
  Ventricular tachycardia, Duration: 12.0 ± 2.9 s
  Ventricular fibrillation, Duration: 74.1 ± 36.0 s
  Exrasystole: 11.0 ± 0.8 times/min.
  Mortality: 1/12

## Cc1c(C)c2c(c(C)c1O)CC[C@@](C)(CCC[C@H](C)CCC[C@H](C)CCCC(C)C)O2 [Vitamin E, α-tocopherol]
[1]
  Inhibition rate (lipid peroxide formation): 44.9%
[2]
  effect on ventricular arrhythmia: no significant effect
  Ventricular fibrillation, Incidence (10 min.): 2.0 ± 0.7
  Ventricular tachycardia, Incidence (10 min.): 3.7 ± 1.5
  Ventricular tachycardia, Duration: 22.3 ± 9.7 s
  Ventricular fibrillation, Duration: 43.4 ± 36.0 s
  Exrasystole: 7.0 ± 4.1 times/min.
  Mortality: 1/10
